# Where “and” joins values, the source holds several entries; their conditions need not be identical. Identical values can stand only once. Toxic doses and inconclusive results are not listed.
# Tested on: P388 leukemia ip, CD2F1 mice, survival T/C
# Assay: NCI In Vivo Anticancer Drug Screen. Data for tumor model P388 Leukemia (intraperitoneal) in CD2F1 (CDF1) mice
# Conditions: endpoint: median survival time, higher = longer survival
# Summary of the method: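 Mice carrying the transplanted tumor received test compound or vehicle. Survival was recorded in each group, and the value is the treated-group measurement divided by that of the vehicle-treated control group.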
# [1] = dose: 50.0 mg/kg/injection, schedule: Q01DX005 (ip), vehicle: saline
# [2] = dose: 50.0 mg/kg/injection, schedule: Q04DX003 (ip), vehicle: saline with Tween-80
# [3] = dose: 100.0 mg/kg/injection, schedule: Q04DX003 (ip), vehicle: saline with Tween-80
# [4] = dose: 50.0 mg/kg/injection, schedule: Q01DX005 (ip), vehicle: Klucel (hydroxypropylcellulose) (HPC)
# [5] = dose: 100.0 mg/kg/injection, schedule: Q01DX005 (ip), vehicle: Klucel (hydroxypropylcellulose) (HPC)
# [6] = dose: 50.0 mg/kg/injection, schedule: Q01DX005 (ip), vehicle: saline with Tween-80
# [7] = dose: 100.0 mg/kg/injection, schedule: Q01DX005 (ip), vehicle: saline with Tween-80
# [8] = dose: 200.0 mg/kg/injection, schedule: Q01DX005 (ip), vehicle: saline with Tween-80
# [9] = dose: 12.5 mg/kg/injection, schedule: Q01DX005 (ip), vehicle: Klucel (hydroxypropylcellulose) (HPC)
# [10] = dose: 25.0 mg/kg/injection, schedule: Q01DX005 (ip), vehicle: Klucel (hydroxypropylcellulose) (HPC)
compound,measurement,setting,value
CN(C)C(=O)COC(C(=O)N(C)C)C(OCC(=O)N(C)C)C(=O)N(C)C (configuration not stated),T/C,[1],97 % of control
same,T/C,"dose: 100.0 mg/kg/injection, schedule: Q01DX005 (ip), vehicle: saline",95 % of control
same,T/C,"dose: 200.0 mg/kg/injection, schedule: Q01DX005 (ip), vehicle: saline",92 % of control
C=C1C(=O)OC2C1CCC(=C)C1CC(OC3OC(CO)C(O)C(O)C3O)C(=C)C12 (configuration not stated),T/C,[2],93 % of control
same,T/C,[3],105 % of control and 86 % of control
same,T/C,"dose: 200.0 mg/kg/injection, schedule: Q04DX003 (ip), vehicle: saline with Tween-80",104 % of control
same,T/C,"dose: 400.0 mg/kg/injection, schedule: Q04DX003 (ip), vehicle: saline with Tween-80",104 % of control and 124 % of control
N#CCCOCN(COCCC#N)c1nc(N(COCCC#N)COCCC#N)nc(N(COCCC#N)COCCC#N)n1,T/C,"dose: 7.5 mg/kg/injection, schedule: Q01DX005 (ip), vehicle: DMSO",97 % of control
same,T/C,"dose: 15.0 mg/kg/injection, schedule: Q01DX005 (ip), vehicle: DMSO",94 % of control
same,T/C,"dose: 30.0 mg/kg/injection, schedule: Q01DX005 (ip), vehicle: DMSO",94 % of control
Cc1cccc2nc(-c3ccccn3)n(CCc3ccccn3)c12,T/C,[4],98 % of control
same,T/C,[5],106 % of control
N#Cc1ccc(C(N)=O)c(C(N)=O)c1,T/C,[6],98 % of control
same,T/C,[7],102 % of control
same,T/C,[8],93 % of control
CC(C)C1(c2ccsc2)NC(=O)NC1=O (configuration not stated),T/C,"dose: 50.0 mg/kg/injection, schedule: Q01DX009 (ip), vehicle: Klucel (hydroxypropylcellulose) (HPC)",107 % of control
same,T/C,"dose: 100.0 mg/kg/injection, schedule: Q01DX009 (ip), vehicle: Klucel (hydroxypropylcellulose) (HPC)",99 % of control
same,T/C,"dose: 200.0 mg/kg/injection, schedule: Q01DX009 (ip), vehicle: Klucel (hydroxypropylcellulose) (HPC)",96 % of control
CCCCN(CCCC)c1nsc(N2CCCCC2)n1,T/C,"dose: 45.0 mg/kg/injection, schedule: Q01DX009 (ip), vehicle: saline with Tween-80",113 % of control
same,T/C,"dose: 90.0 mg/kg/injection, schedule: Q01DX009 (ip), vehicle: saline with Tween-80",117 % of control
same,T/C,"dose: 180.0 mg/kg/injection, schedule: Q01DX009 (ip), vehicle: saline with Tween-80",118 % of control
Cc1cc(=O)n(-c2cccc3ccccc23)c(C)c1C(=O)O,T/C,[6],102 % of control
same,T/C,[7],94 % of control
CC(O)c1nc2c3ccccc3ccc2n1C (configuration not stated),T/C,[6],96 % of control
same,T/C,[7],93 % of control
same,T/C,[8],92 % of control
CN(C)C1c2cc(Br)ccc2-c2ccc(Br)cc21,T/C,[4],95 % of control
same,T/C,[5],105 % of control
same,T/C,"dose: 200.0 mg/kg/injection, schedule: Q01DX005 (ip), vehicle: Klucel (hydroxypropylcellulose) (HPC)",110 % of control
[Fe].[c-]1[c-][c-][c-](CNc2ncnc3nc[nH]c23)[c-]1.[c-]1[c-][c-][cH-][c-]1,T/C,[9],97 % of control
same,T/C,[10],100 % of control
same,T/C,[4],86 % of control
same,T/C,[5],91 % of control
Cc1nc2sc3c(c2c(=N)n1N)CCCC3,T/C,"dose: 12.5 mg/kg/injection, schedule: Q01DX001 (ip), vehicle: Klucel (hydroxypropylcellulose) (HPC)",103 % of control
same,T/C,"dose: 25.0 mg/kg/injection, schedule: Q01DX001 (ip), vehicle: Klucel (hydroxypropylcellulose) (HPC)",97 % of control
Cc1ccc(NCCNCC(O)CO)c2c(=O)c3ccccc3sc12 (configuration not stated),T/C,[9],109 % of control
same,T/C,[10],118 % of control
same,T/C,[1],151 % of control
O=C(Oc1ccccc1)C1CC2(C1)CC(C(=O)Oc1ccccc1)C2 (configuration not stated),T/C,"dose: 100.0 mg/kg/injection, schedule: Q04DX002 (ip), vehicle: saline with Tween-80",101 % of control
same,T/C,"dose: 200.0 mg/kg/injection, schedule: Q04DX002 (ip), vehicle: saline with Tween-80",99 % of control
same,T/C,"dose: 400.0 mg/kg/injection, schedule: Q04DX002 (ip), vehicle: saline with Tween-80",99 % of control
O=C(CNO)OCc1ccccc1,T/C,"dose: 25.0 mg/kg/injection, schedule: Q01DX009 (ip), vehicle: other",97 % of control
same,T/C,"dose: 50.0 mg/kg/injection, schedule: Q01DX009 (ip), vehicle: other",106 % of control
same,T/C,"dose: 100.0 mg/kg/injection, schedule: Q01DX009 (ip), vehicle: other",104 % of control
same,T/C,"dose: 200.0 mg/kg/injection, schedule: Q01DX009 (ip), vehicle: other",100 % of control
same,T/C,"dose: 400.0 mg/kg/injection, schedule: Q01DX009 (ip), vehicle: other",106 % of control
O=C1CSC(=S)N1c1ccc(F)c(F)c1,T/C,"dose: 50.0 mg/kg/injection, schedule: Q01DX009 (ip), vehicle: saline",107 % of control
same,T/C,"dose: 100.0 mg/kg/injection, schedule: Q01DX009 (ip), vehicle: saline",106 % of control
same,T/C,"dose: 200.0 mg/kg/injection, schedule: Q01DX009 (ip), vehicle: saline",108 % of control
[O-][N+](O)=C1c2ccccc2-c2ccccc21,T/C,"dose: 100.0 mg/kg/injection, schedule: Q04DX003 (ip), vehicle: saline",100 % of control
same,T/C,"dose: 200.0 mg/kg/injection, schedule: Q04DX003 (ip), vehicle: saline",103 % of control
same,T/C,"dose: 400.0 mg/kg/injection, schedule: Q04DX003 (ip), vehicle: saline",102 % of control
CC(=O)c1c(C)[nH]c(-c2ccccc2)c1NS(=O)(=O)c1ccc(N)cc1,T/C,"dose: 60.0 mg/kg/injection, schedule: Q01DX005 (ip), vehicle: saline with Tween-80",98 % of control
same,T/C,"dose: 120.0 mg/kg/injection, schedule: Q01DX005 (ip), vehicle: saline with Tween-80",91 % of control
C=C1CC2(CCCC(=O)C2)OC1=O (configuration not stated),T/C,[9],97 % of control
same,T/C,[10],101 % of control
same,T/C,[4],99 % of control and 101 % of control
NC(CS)=NCC1C2CC3CC(C2)CC1C3 (configuration not stated),T/C,"dose: 0.78 mg/kg/injection, schedule: Q01DX009 (ip), vehicle: Klucel (hydroxypropylcellulose) (HPC)",100 % of control
same,T/C,"dose: 1.56 mg/kg/injection, schedule: Q01DX009 (ip), vehicle: Klucel (hydroxypropylcellulose) (HPC)",100 % of control
same,T/C,"dose: 3.12 mg/kg/injection, schedule: Q01DX009 (ip), vehicle: Klucel (hydroxypropylcellulose) (HPC)",100 % of control and 91 % of control
same,T/C,"dose: 6.25 mg/kg/injection, schedule: Q01DX009 (ip), vehicle: Klucel (hydroxypropylcellulose) (HPC)",104 % of control
COC(=O)Nc1nc2cc(OC)c(OC)cc2c(=O)[nH]1,T/C,"dose: 25.0 mg/kg/injection, schedule: Q01DX005 (ip), vehicle: saline with Tween-80",111 % of control
same,T/C,[6],107 % of control
CN([NH-])C(=S)[S-].CN([NH-])C(=S)[S-].[Ni],T/C,"dose: 50.0 mg/kg/injection, schedule: Q04DX003 (ip), vehicle: Klucel (hydroxypropylcellulose) (HPC)",100 % of control
same,T/C,[2],100 % of control
same,T/C,"dose: 100.0 mg/kg/injection, schedule: Q01DX001 (ip), vehicle: saline with Tween-80",120 % of control
same,T/C,[3],100 % of control
same,T/C,"dose: 200.0 mg/kg/injection, schedule: Q01DX001 (ip), vehicle: saline with Tween-80",101 % of control
same,T/C,"dose: 200.0 mg/kg/injection, schedule: Q04DX003 (ip), vehicle: Klucel (hydroxypropylcellulose) (HPC)",117 % of control
same,T/C,"dose: 400.0 mg/kg/injection, schedule: Q01DX001 (ip), vehicle: saline with Tween-80",123 % of control
O=C(C=C(C(F)(F)F)C(F)(F)F)c1ccccc1Cl,T/C,"dose: 6.25 mg/kg/injection, schedule: Q01DX009 (ip), vehicle: saline with Tween-80",110 % of control
same,T/C,"dose: 12.5 mg/kg/injection, schedule: Q01DX009 (ip), vehicle: saline with Tween-80",150 % of control
same,T/C,"dose: 12.5 mg/kg/injection, schedule: Q04DX003 (ip), vehicle: saline with Tween-80",113 % of control
same,T/C,"dose: 25.0 mg/kg/injection, schedule: Q04DX003 (ip), vehicle: saline with Tween-80",118 % of control
O=[N+]([O-])c1cnc(Sc2ncccn2)c([N+](=O)[O-])c1,T/C,"dose: 3.12 mg/kg/injection, schedule: Q01DX009 (ip), vehicle: saline",96 % of control
same,T/C,"dose: 3.12 mg/kg/injection, schedule: Q01DX009 (ip), vehicle: suspension in saline",107 % of control
same,T/C,"dose: 6.25 mg/kg/injection, schedule: Q01DX009 (ip), vehicle: saline",96 % of control
same,T/C,"dose: 6.25 mg/kg/injection, schedule: Q01DX009 (ip), vehicle: suspension in saline",104 % of control
same,T/C,"dose: 12.5 mg/kg/injection, schedule: Q01DX009 (ip), vehicle: saline",99 % of control
same,T/C,"dose: 12.5 mg/kg/injection, schedule: Q01DX009 (ip), vehicle: suspension in saline",98 % of control and 108 % of control
same,T/C,"dose: 25.0 mg/kg/injection, schedule: Q01DX009 (ip), vehicle: suspension in saline",105 % of control
same,T/C,"dose: 50.0 mg/kg/injection, schedule: Q01DX009 (ip), vehicle: suspension in saline",99 % of control and 107 % of control

# Source: PubChem BioAssay AID330 (DTP/NCI, 2004)
